In brackets after ≈: the same amount, converted by molar mass.
Columns and labels:
[1] = system: A549/ATCC; assay: NCI cancer cell line screen (sulforhodamin B); assay type: cell-based; details: Homo sapiens, NSCL, 48 h, read-out: log10 GI50 (converted)
Experimental: (§1) The new dual Aurora A/VEGF-R inhibitors 2e and 2n were selected by the National Cancer Institute for screening in its broad cancer cell line panel. The NCI in vitro assay is performed by incubation of cells with test compounds for 48 h and subsequent cell fixation with trichloroacetic acid. The pink dye sulforhodamin B is added, which binds to the proteins of the fixed cells. After washing and solubilizing the bound stain, the optical density is measured spectrophotometrically to determine the relative proliferation of treated and untreated cells.
(§2) Simultaneous inhibition of the Aurora A kinase and the VEGF-R2/3 receptor kinases may represent an interesting dual activity for the treatment of cancer. The National Cancer Institute selected the compounds 2e and 2n as representatives with particularly high inhibitory activity on the above kinases for testing in the IVCLS (in vitro cell line screening). In this screening, compounds are tested for antiproliferative activity on about 60 in vitro cultivated tumor cell lines. Based on this very broad screening on cell lines from nine tumor entities the general antiproliferative potency of compounds is determined. In addition, the bioinformatic tool COMPARE allowed one to draw conclusions on the molecular target of the compounds from the activity patterns on the different cell lines. Similar molecular mechanisms of action of two compounds are assumed if a Pearson correlation coefficient (PCC) of > 0.6 is calculated by COMPARE [52, 53]. […] The selectivity profile of the two compounds is not very pronounced given the overall very similar proliferation inhibition values across all cell lines. A COMPARE analysis determined a PCC = 0.61 for the patterns of test compounds 2e and 2n, which is consistent with an analogous mechanism of action. However, whether this mechanism is actually based on the inhibition of the inhibited Aurora kinases and VEGF receptor kinases cannot be deduced from these profiles.

[2] = system: CCRF-CEM; assay: NCI cancer cell line screen (sulforhodamin B); assay type: cell-based; details: Homo sapiens, Leukemia, 48 h, read-out: log10 GI50 (converted)
Experimental: as §1, §2

[3] = system: HL-60(TB); assay: NCI cancer cell line screen (sulforhodamin B); assay type: cell-based; details: Homo sapiens, Leukemia, 48 h, read-out: log10 GI50 (converted)
Experimental: as §1, §2

[4] = system: OVCAR-4; assay: NCI cancer cell line screen (sulforhodamin B); assay type: cell-based; details: Homo sapiens; OVCAR-4, Ovarian; 48 h; read-out: log10 GI50 (converted)
Experimental: as §1, §2

[5] = system: NCI-H460; assay: NCI cancer cell line screen (sulforhodamin B); assay type: cell-based; details: Homo sapiens; NCI-H460, NSCL; 48 h; read-out: log10 GI50 (converted)
Experimental: as §1, §2

[6] = system: SK-MEL-2; assay: NCI cancer cell line screen (sulforhodamin B); assay type: cell-based; details: Homo sapiens; SK-MEL-2, Melanoma; 48 h; read-out: log10 GI50 (converted)
Experimental: as §1, §2

[7] = system: OVCAR-8; assay: NCI cancer cell line screen (sulforhodamin B); assay type: cell-based; details: Homo sapiens; OVCAR-8, Ovarian; 48 h; read-out: log10 GI50 (converted)
Experimental: as §1, §2

[8] = system: PC-3; assay: NCI cancer cell line screen (sulforhodamin B); assay type: cell-based; details: Homo sapiens; PC-3, Prostate; 48 h; read-out: log10 GI50 (converted)
Experimental: as §1, §2

[9] = system: EKVX; assay: NCI cancer cell line screen (sulforhodamin B); assay type: cell-based; details: Homo sapiens, NSCL, 48 h, read-out: log10 GI50 (converted)
Experimental: as §1, §2

[10] = system: OVCAR-5; assay: NCI cancer cell line screen (sulforhodamin B); assay type: cell-based; details: Homo sapiens; OVCAR-5, Ovarian; 48 h; read-out: log10 GI50 (converted)
Experimental: as §1, §2

[11] = system: NCI-H522; assay: NCI cancer cell line screen (sulforhodamin B); assay type: cell-based; details: Homo sapiens; NCI-H522, NSCL; 48 h; read-out: log10 GI50 (converted)
Experimental: as §1, §2

[12] = system: SF-539; assay: NCI cancer cell line screen (sulforhodamin B); assay type: cell-based; details: Homo sapiens; SF-539, CNS; 48 h; read-out: log10 GI50 (converted)
Experimental: as §1, §2

[13] = system: OVCAR-3; assay: NCI cancer cell line screen (sulforhodamin B); assay type: cell-based; details: Homo sapiens; OVCAR-3, Ovarian; 48 h; read-out: log10 GI50 (converted)
Experimental: as §1, §2

[14] = system: NCI-H226; assay: NCI cancer cell line screen (sulforhodamin B); assay type: cell-based; details: Homo sapiens; NCI-H226, NSCL; 48 h; read-out: log10 GI50 (converted)
Experimental: as §1, §2

[15] = system: SN12C; assay: NCI cancer cell line screen (sulforhodamin B); assay type: cell-based; details: Homo sapiens, Renal, 48 h, read-out: log10 GI50 (converted)
Experimental: as §1, §2

[16] = system: M14; assay: NCI cancer cell line screen (sulforhodamin B); assay type: cell-based; details: Homo sapiens; M14, Melanoma; 48 h; read-out: log10 GI50 (converted)
Experimental: as §1, §2

[17] = system: SK-MEL-28; assay: NCI cancer cell line screen (sulforhodamin B); assay type: cell-based; details: Homo sapiens; SK-MEL-28, Melanoma; 48 h; read-out: log10 GI50 (converted)
Experimental: as §1, §2

[18] = system: SF-268; assay: NCI cancer cell line screen (sulforhodamin B); assay type: cell-based; details: Homo sapiens; SF-268, CNS; 48 h; read-out: log10 GI50 (converted)
Experimental: as §1, §2

[19] = system: SW-620; assay: NCI cancer cell line screen (sulforhodamin B); assay type: cell-based; details: Homo sapiens; SW-620, Colon; 48 h; read-out: log10 GI50 (converted)
Experimental: as §1, §2

[20] = kinetic solubility by nephelometry; assay type: physicochemical; details: phosphate buffer, 25 °C, pH 7.4, aqueous buffer, kinetic from dmso stock, phosphate buffer pH 7.4, 1% DMSO, mean of two measurements, range in brackets
Experimental: The kinetic solubility of test compounds was determined by nephelometry. Dilution series of test compounds in DMSO with eight to ten different concentrations were prepared. The dilutions were pipetted (2 µL) into the cavities of a 96 well plate (CorningTM UV-transparent flat-bottom microtiter plate; Corning Incorporated, Kennebunk, ME, USA). A phosphate buffer solution pH 7.4 (198 µL) was added, so that the DMSO concentration in the measured solutions was 1%. Three wells were filled with DMSO and phosphate buffer pH 7.4 (2:198) and measured as blank values. The 96 well plate prepared in this way was measured with the NEPHELOstar® Plus nephelometer (BMG Labtech GmbH, Ortenberg, Germany, software: Omega 5.11) at a temperature of 25 °C. Previously, the plate was shaken at 500 rpm for 10 s and the laser intensity was set to 80%. The beam focus was set to 2.50 mm. If the test substance is completely soluble, only a scattering close to the blank value is detected. As soon as a critical concentration is reached in which the kinetic solubility of the test compound is exceeded, solid particles precipitate. Undissolved particles in the sample scatter the laser beam. The intensity of the scattered light is determined, which is proportional to the number of particles in the solution. The blank values were determined and subtracted from the measured values of the test compounds. By measuring different concentrations of the test substances, different intensities of the scattered light, indicated as RNU (relative nephelometric units), were determined. Kick off curves were obtained by plotting concentrations against the RNU values. The point of intersection of the horizontal and of the ascending part of the kick-off curve indicated the kinetic solubility concentration.

| Compound | GI50 [1] [µM] | GI50 [2] [µM] | GI50 [3] [µM] | GI50 [4] [µM] | GI50 [5] [µM] | GI50 [6] [µM] | GI50 [7] [µM] | GI50 [8] [µM] | GI50 [9] [µM] | GI50 [10] [µM] | GI50 [11] [µM] | GI50 [12] [µM] | GI50 [13] [µM] | GI50 [14] [µM] | GI50 [15] [µM] | GI50 [16] [µM] | GI50 [17] [µM] | GI50 [18] [µM] | GI50 [19] [µM] | solubility kinetic at 10 s [20] [µM] |
| --- | --- | --- | --- | --- | --- | --- | --- | --- | --- | --- | --- | --- | --- | --- | --- | --- | --- | --- | --- | --- |
| O=C1CCCc2cc(-c3ccnc(Nc4ccc(O)cc4)n3)ccc2N1 [Compound 2e, 7-[2-(4-Hydroxyanilino)pyrimidin-4-yl]-1,3,4,5-tetrahydro-2H-1-benzazepin-2-one] | 4.47 | 2.51 | 1.38 | 5.62 | 3.16 | 2.09 | 4.07 | 4.9 | 34.7 | 6.46 | 4.47 | 4.17 | 5.89 | 29.5 | 6.17 | 4.07 | 5.75 | 4.37 | 4.79 |  |
| COc1ccc(Nc2nccc(-c3ccc4c(c3)CCCC(=O)N4)n2)cc1O [Compound 2n, 7-[2-(3-Hydroxy-4-methoxyanilino)pyrimidin-4-yl]-1,3,4,5-tetrahydro-2H-1-benzazepin-2-one] | 7.94 | 3.89 | 3.16 | 7.59 | 4.68 | 9.12 | 9.77 | 12.6 | 43.7 | 8.71 | 10 | 4.47 | 10 | 9.12 | 5.75 | 4.37 | 9.12 | 7.41 | 4.47 | 92.6 (≈ 34.9 µg/mL) |
| O=C1CCCc2cc(-c3ccnc(Nc4ccccc4)n3)ccc2N1 [Compound 2a, 7-(2-Anilinopyrimidin-4-yl)-1,3,4,5-tetrahydro-2H-1-benzazepin-2-one] |  |  |  |  |  |  |  |  |  |  |  |  |  |  |  |  |  |  |  | ~50 (≈ 16.5 µg/mL) |
